Data published in US10800774B2, “Heterocyclic inhibitors of ATR kinase” (Board of Regents, The University of Texas System, priority 2017, dated 2020).

Key:
[1] = target: ATR/ATRIP complex (Homo sapiens (Human), UniProt Q13535); experiment: ATR/ATRIP enzymatic assay (Caliper-based); assay type: biochemical; conditions: FAM-labeled RAD17 peptide, ATP; read-out: ATR/ATRIP Enzyme IC50
Procedure: Human full-length FLAG-TEV-ATR and His6-ATRIP were co-expressed in HEK293 cells. […] The sample was loaded into a column, and then washed with buffer A three times. Protein was subsequently eluted with 2 ml of buffer B (buffer A+200 μg/ml 3×FLAG peptide).
The ability of new chemical matter to inhibit the ATR catalytic activity in this ATR/ATRIP complex was assessed using a Caliper-based assay. A 2× enzyme solution (i.e., 4 nM enzyme) was prepared using 1× Kinase Reaction Buffer (25 mM HEPES pH 8, 0.0055% Brij-35, 10 mM MnCl2, and 1 mM DTT). […] 10 μL of the 2× enzyme solution was transferred to an assay plate containing 60 nL of test compound (from a 3× serial dilution) in 100% DMSO. Following a 30 minute incubation at 28° C., 10 μL of the 2× peptide solution was then transferred to the same assay plate. The reaction was allowed to incubate at 28° C. for 6 hours. After adding […] of stop buffer (100 mM HEPES pH 7.5, 0.015% Brij-35, 0.2% Coating-3 Reagent (PerkinElmer, catalog # PN760050), and 50 mM EDTA), data were collected on a Caliper instrument. Conversion values were converted to inhibition values via the following equation: % inhibition=(max−conversion)/(max−min)*100, whereby “max” corresponds to the DMSO control and “min” corresponds to the low control. IC50 values were calculated using the following equation in XLFit: Y=Bottom+(Top−Bottom)/1+(IC50/X)^HillSlope).

[2] = test system: ATR-driven phosphorylation of Chk1 kinase at Serine 345 in HT-29 cells; experiment: pCHK1 cellular assay (CHK1 p-Ser345 AlphaScreen SureFire); conditions: Homo sapiens, HT-29, read-out: pCHK1 Cell IC50
Procedure: The microplate was incubated overnight (approximately 20 hours) at 37° C. with 5% CO2 and ambient 02. Stock solutions of the test compounds were prepared in 100% DMSO (Sigma, Catalog # D2650) and serially diluted 1:3 using 100% DMSO. Compounds were additionally diluted 1:33 in culture medium, and 10 ul/well were transferred to the tissue culture plate. Following the compound addition the microplate was incubated at 37° C. for 90 minutes. […] The cells were then washed with PBS and lysed using 10 uL/well […] ® Kit lysis buffer diluted to 1× in water (PerkinElmer Catalog # TGRCHK1S50K), with mixing on an orbital shaker at 500 rpm for 20 min at RT. Lysates were frozen at −20° C. overnight.
The pCHK1 ALPHASCREEN® signal was measured using an ENVISION® plate reader (PerkinElmer). IC50 values were calculated using a four-parameter logistic curve fit using Genedata Screener software. Percent of control for each compound concentration was calculated by the following formula: 100*(Compound-Min)/(Max-Min) where “Max” is the high control, DMSO, and “Min” is the low control, 5 uM ATR inhibitor.

Chain of ATR/ATRIP complex (Q13535 whole entry): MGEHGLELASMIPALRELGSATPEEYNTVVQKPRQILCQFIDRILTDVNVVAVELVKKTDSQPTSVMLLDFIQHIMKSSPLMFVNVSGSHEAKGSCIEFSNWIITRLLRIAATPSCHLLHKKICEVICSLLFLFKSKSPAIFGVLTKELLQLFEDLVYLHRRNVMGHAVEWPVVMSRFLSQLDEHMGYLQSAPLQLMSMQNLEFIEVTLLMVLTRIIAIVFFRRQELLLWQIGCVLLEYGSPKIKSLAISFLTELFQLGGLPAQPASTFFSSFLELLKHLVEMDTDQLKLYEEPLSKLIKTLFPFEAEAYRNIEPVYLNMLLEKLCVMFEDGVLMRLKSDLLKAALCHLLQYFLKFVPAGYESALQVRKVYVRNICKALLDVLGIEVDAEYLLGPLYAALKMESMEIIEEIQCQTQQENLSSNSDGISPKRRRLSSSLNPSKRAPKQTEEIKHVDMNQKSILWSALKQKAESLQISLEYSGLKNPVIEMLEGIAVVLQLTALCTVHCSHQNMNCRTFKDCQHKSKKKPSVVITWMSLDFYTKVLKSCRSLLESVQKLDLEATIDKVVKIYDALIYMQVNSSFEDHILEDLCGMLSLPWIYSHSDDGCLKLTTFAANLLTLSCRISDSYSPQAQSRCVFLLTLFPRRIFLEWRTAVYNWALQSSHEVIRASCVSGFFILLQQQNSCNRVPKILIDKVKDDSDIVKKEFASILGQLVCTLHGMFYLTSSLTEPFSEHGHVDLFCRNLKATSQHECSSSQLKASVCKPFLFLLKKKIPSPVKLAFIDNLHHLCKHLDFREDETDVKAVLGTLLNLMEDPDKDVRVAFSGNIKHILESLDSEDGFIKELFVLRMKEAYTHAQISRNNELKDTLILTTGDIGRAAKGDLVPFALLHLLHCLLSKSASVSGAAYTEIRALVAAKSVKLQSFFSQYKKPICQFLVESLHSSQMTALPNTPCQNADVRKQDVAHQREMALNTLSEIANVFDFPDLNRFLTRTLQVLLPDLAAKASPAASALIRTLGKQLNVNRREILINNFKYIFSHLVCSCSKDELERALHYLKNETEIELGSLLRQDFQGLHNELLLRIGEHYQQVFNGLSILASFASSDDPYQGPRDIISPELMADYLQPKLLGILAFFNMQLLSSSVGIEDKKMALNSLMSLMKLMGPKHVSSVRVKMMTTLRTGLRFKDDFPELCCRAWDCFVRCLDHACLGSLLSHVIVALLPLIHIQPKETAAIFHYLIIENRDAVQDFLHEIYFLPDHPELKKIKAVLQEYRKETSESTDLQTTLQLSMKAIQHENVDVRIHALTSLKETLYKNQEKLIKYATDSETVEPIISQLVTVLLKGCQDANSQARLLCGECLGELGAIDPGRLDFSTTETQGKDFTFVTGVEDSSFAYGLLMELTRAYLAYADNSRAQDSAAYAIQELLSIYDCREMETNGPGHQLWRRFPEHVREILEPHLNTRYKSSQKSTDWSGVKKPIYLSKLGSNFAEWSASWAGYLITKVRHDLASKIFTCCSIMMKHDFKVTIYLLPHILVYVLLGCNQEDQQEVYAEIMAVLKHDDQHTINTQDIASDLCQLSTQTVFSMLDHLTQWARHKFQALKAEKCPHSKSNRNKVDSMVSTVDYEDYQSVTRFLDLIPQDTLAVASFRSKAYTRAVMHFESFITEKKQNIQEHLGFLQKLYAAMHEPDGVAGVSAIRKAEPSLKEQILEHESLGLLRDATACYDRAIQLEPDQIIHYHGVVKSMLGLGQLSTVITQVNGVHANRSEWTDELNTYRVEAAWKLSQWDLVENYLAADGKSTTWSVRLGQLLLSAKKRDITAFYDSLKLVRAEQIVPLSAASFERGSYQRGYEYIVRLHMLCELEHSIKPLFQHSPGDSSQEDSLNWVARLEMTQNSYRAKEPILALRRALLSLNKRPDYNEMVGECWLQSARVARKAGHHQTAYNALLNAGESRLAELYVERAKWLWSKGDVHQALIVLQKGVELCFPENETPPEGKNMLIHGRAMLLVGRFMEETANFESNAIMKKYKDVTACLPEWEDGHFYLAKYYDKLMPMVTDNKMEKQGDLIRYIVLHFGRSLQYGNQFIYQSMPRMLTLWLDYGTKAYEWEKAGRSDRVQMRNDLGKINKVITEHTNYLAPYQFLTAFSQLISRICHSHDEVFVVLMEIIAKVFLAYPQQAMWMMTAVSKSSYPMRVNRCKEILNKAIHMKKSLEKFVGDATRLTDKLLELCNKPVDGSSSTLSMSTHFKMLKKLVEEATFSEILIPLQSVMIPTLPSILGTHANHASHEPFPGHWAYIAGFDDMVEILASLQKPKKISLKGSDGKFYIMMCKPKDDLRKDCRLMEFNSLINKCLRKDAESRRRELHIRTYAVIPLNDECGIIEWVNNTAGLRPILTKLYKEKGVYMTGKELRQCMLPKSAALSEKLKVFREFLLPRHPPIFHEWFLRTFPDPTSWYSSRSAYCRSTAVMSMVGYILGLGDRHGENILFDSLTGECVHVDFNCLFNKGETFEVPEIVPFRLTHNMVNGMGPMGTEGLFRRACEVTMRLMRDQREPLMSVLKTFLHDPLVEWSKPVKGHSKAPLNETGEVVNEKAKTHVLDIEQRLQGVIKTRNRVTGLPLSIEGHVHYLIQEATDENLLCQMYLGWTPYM
Chain of ATR/ATRIP complex (Q8WXE1 whole entry partner): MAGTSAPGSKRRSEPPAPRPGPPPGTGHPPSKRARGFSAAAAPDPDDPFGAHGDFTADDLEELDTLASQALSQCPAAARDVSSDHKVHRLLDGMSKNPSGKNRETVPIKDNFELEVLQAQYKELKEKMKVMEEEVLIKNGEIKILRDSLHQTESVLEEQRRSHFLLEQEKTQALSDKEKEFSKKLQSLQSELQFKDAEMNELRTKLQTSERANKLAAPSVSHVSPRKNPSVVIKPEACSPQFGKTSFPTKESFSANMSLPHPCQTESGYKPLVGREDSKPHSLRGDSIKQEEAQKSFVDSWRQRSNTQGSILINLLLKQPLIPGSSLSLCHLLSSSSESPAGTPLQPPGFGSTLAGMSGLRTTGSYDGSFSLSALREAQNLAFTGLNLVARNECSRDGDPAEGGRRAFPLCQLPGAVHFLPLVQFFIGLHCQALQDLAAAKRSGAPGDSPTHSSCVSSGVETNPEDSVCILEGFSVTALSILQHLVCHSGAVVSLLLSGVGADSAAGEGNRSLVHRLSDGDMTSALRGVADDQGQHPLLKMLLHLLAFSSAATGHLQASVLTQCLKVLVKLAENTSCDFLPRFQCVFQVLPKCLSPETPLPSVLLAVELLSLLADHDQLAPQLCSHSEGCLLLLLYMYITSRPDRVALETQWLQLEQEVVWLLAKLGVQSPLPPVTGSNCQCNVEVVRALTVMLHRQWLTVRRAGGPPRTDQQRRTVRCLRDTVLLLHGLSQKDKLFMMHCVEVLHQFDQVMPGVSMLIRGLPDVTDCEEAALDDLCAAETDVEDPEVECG

| SMILES | IC50 [1] [nM] | IC50 [2] [nM] |
| --- | --- | --- |
| CCC(=O)N1CCC(c2cc(N3CCOC[C@H]3C)nc(-c3ccnc4[nH]ccc34)n2)CC1 [Example 20, 1-(4-{6-[(3R)-3-Methylmorpholin-4-yl]-2-{1H-pyrrolo[2,3-b]pyridin-4-yl}pyrimidin-4-yl}piperidin-1-yl) propan-1-one] | 15 | 51 |
| C[C@@H]1COCCN1c1cc(C2CCCN(S(C)(=O)=O)C2)nc(-c2ccnc3[nH]ccc23)n1 (stereo partly drawn) [Example 10, (3R)-4-[6-(1-Methane-sulfonylpiperidin-3-yl)-2-{1H-pyrrolo[2,3-b]pyridin-4-yl}pyrimidin-4-yl]-3-methylmorpholine] | 7 | 134 |
| CC(=O)N1CCC(c2cc(N3CCOC[C@H]3C)nc(-c3ccnc4[nH]ccc34)n2)C1 (stereo partly drawn) [Example 16, 1-(3-{6-[(3R)-3-Methyl-morpholin-4-yl]-2-{1H-pyrrolo[2,3-b]pyridin-4-yl}-pyrimidin-4-yl}pyrrolidin-1-yl) ethan-1-one] | 19 | 242 |
| COCC(=O)N1CCC(c2cc(N3CCOC[C@H]3C)nc(-c3ccnc4[nH]ccc34)n2)CC1 [Example 24, 2-Methoxy-1-(4-{6-[(3R)-3-methylmorpholin-4-yl]-2-{1H-pyrrolo[2,3-b]pyridin-4-yl}pyrimidin-4-yl}piperidin-1-yl) ethan-1-one] | 13 | 85 |
| CC(=O)N1CCCC(c2cc(N3CCOC[C@H]3C)nc(-c3ccnc4[nH]ccc34)n2)C1 (stereo partly drawn) [Example 15, 1-(3-{6-[(3R)-3-Methylmorpholin-4-yl]-2-{1H-pyrrolo[2,3-b]pyridin-4-yl}pyrimidin-4-yl}piperidin-1-yl) ethan-1-one] | 10 | 210 |
| C[C@@H]1COCCN1c1cc([C@]2(C)CCCS2(=O)=O)nc(-c2ccnc3[nH]ccc23)n1 [Example 30a, (S)-2-methyl-2-(6-((R)-3-methylmorpholino)-2-(1H-pyrrolo[2,3-b]pyridin-4-yl)pyrimidin-4-yl)tetrahydrothiophene 1,1-dioxide] | 6 | 76 |
| CNC(=O)N1CCC(c2cc(N3CCOC[C@H]3C)nc(-c3ccnc4[nH]ccc34)n2)C1 (stereo partly drawn) [Example 18, N-methyl-3-{6-[(3R)-3-methylmorpholin-4-yl]-2-{1H-pyrrolo[2,3-b]pyridin-4-yl}pyrimidin-4-yl}-pyrrolidine-1-carboxamide] | 14 | 191 |
| COC(=O)N1CCC(c2cc(N3CCOC[C@H]3C)nc(-c3ccnc4[nH]ccc34)n2)CC1 [Example 13, Methyl 4-{6-[(3R)-3-methylmorpholin-4-yl]-2-{1H-pyrrolo[2,3-b]pyridin-4-yl}pyrimidin-4-yl}piperidine-1-carboxylate] | 10 | 186 |
| C[C@@H]1COCCN1c1cc(C2CCN(C(=O)OCC3CC3)CC2)nc(-c2ccnc3[nH]ccc23)n1 [Example 28, Cyclopropylmethyl 4-{6-[(3R)-3-methylmorpholin-4-yl]-2-{1H-pyrrolo[2,3-b]-pyridin-4-yl}pyrimidin-4-yl}piperidine-1-carboxylate] | 17 | 270 |
| C[C@@H]1COCCN1c1cc(N2CCCN(C)S2(=O)=O)nc(-c2cc(Cl)nc3[nH]ccc23)n1 [Example 6, (R)-2-(2-(6-Chloro-1H-pyrrolo[2,3-b]pyridin-4-yl)-6-(3-methylmorpholino)pyrimidin-4-yl)-6-methyl-1,2,6-thiadiazinane 1,1-dioxide] | 52 | 505 |
| C[C@@H]1COCCN1c1cc(C2(C)CCCS2(=O)=O)nc(-c2ccnc3[nH]ccc23)n1 (stereo partly drawn) [Example 29, 2-Methyl-2-(6-((R)-3-methylmorpholino)-2-(1H-pyrrolo[2,3-b]pyridin-4-yl)pyrimidin-4-yl)tetrahydrothiophene 1,1-dioxide] | 8 | 89 |
| CCN1CCCN(c2cc(N3CCOC[C@H]3C)nc(-c3ccnc4[nH]ccc34)n2)S1(=O)=O [Example 1, (R)-2-Ethyl-6-(6-(3-methylmorpholino)-2-(1H-pyrrolo[2,3-b]pyridin-4-yl)pyrimidin-4-yl)-1,2,6-thiadiazinane 1,1-dioxide] | 7 | 95 |
| C[C@@H]1COCCN1c1cc(C2CCN(S(=O)(=O)C3CC3)CC2)nc(-c2ccnc3[nH]ccc23)n1 [Example 23, (3R)-4-{6-[1-(Cyclopropane-sulfonyl)piperidin-4-yl]-2-{1H-pyrrolo[2,3-b]pyridin-4-yl}pyrimidin-4-yl}-3-methylmorpholine] | 5 | 21 |
| COC(=O)N1CCC(c2cc(N3CCOC[C@H]3C)nc(-c3ccnc4[nH]ccc34)n2)C1 (stereo partly drawn) [Example 17, Methyl 3-{6-[(3R)-3-methylmorpholin-4-yl]-2-{1H-pyrrolo[2,3-b]pyridin-4-yl}pyrimidin-4-yl}-pyrrolidine-1-carboxylate] | 10 | 138 |
| CC(C)N1CCCN(c2cc(N3CCOC[C@H]3C)nc(-c3ccnc4[nH]ccc34)n2)S1(=O)=O [Example 8, 2-{6-[(3R)-3-Methylmorpholin-4-yl]-2-{1H-pyrrolo[2,3-b]pyridin-4-yl}pyrimidin-4-yl}-6-(propan-2-yl)-1λ^6,2,6-thiadiazinane-1,1-dione] | 7 | 301 |
| CC(C)OC(=O)N1CCC(c2cc(N3CCOC[C@H]3C)nc(-c3ccnc4[nH]ccc34)n2)CC1 [Example 27, Propan-2-yl 4-{6-[(3R)-3-methylmorpholin-4-yl]-2-{1H-pyrrolo[2,3-b]pyridin-4-yl}pyrimidin-4-yl}piperidine-1-carboxylate] | 15 | 405 |
| C[C@@H]1COCCN1c1cc(C2CCCN(C)C2=O)nc(-c2ccnc3[nH]ccc23)n1 (stereo partly drawn) [Example 19, 1-Methyl-3-{6-[(3R)-3-methylmorpholin-4-yl]-2-{1H-pyrrolo[2,3-b]pyridin-4-yl}pyrimidin-4-yl} piperidin-2-one] | 47 | 921 |
| C[C@@H]1COCCN1c1cc(C2CCN(C)C2=O)nc(-c2ccnc3[nH]ccc23)n1 (stereo partly drawn) [Example 3, 1-Methyl-3-(6-((R)-3-methylmorpholino)-2-(1H-pyrrolo[2,3-b]pyridin-4-yl)pyrimidin-4-yl)pyrrolidin-2-one] | 48 | 496 |
| CCOC(=O)N1CCC(c2cc(N3CCOC[C@H]3C)nc(-c3ccnc4[nH]ccc34)n2)CC1 [Example 22, Ethyl 4-{6-[(3R)-3-methylmorpholin-4-yl]-2-{1H-pyrrolo[2,3-b]pyridin-4-yl}pyrimidin-4-yl} piperidine-1-carboxylate] | 15 | 109 |
| C[C@@H]1COCCN1c1cc(C2CCN(S(C)(=O)=O)C2)nc(-c2ccnc3[nH]ccc23)n1 (stereo partly drawn) [Example 11, (3R)-4-[6-(1-Methane-sulfonylpyrrolidin-3-yl)-2-{1H-pyrrolo[2,3-b]pyridin-4-yl}pyrimidin-4-yl]-3-methylmorpholine] | 8 | 97 |
| CC(=O)N1CCC(c2cc(N3CCOC[C@H]3C)nc(-c3ccnc4[nH]ccc34)n2)CC1 [Example 12, 1-(4-{6-[(3R)-3-Methylmorpholin-4-yl]-2-{1H-pyrrolo[2,3-b]pyridin-4-yl}pyrimidin-4-yl}piperidin-1-yl) ethan-1-one] | 24 | 128 |
| C[C@@H]1COCCN1c1cc(C2CCCCS2(=O)=O)nc(-c2ccnc3[nH]ccc23)n1 (stereo partly drawn) [Example 26, 2-{6-[(3R)-3-Methyl-morpholin-4-yl]-2-{1H-pyrrolo[2,3-b]pyridin-4-yl}pyrimidin-4-yl}-1λ^6-thiane-1,1-dione] | 8 | 86 |
| C[C@@H]1COCCN1c1cc([C@H]2CCCS2(=O)=O)nc(-c2cc(Cl)nc3[nH]ccc23)n1 (single isomer, unassigned) [Example 5b] | 72 | 435 |
| C[C@@H]1COCCN1c1cc(C2CCOCC2)nc(-c2ccnc3[nH]ccc23)n1 [Example 14, (3R)-3-Methyl-4-[6-(oxan-4-yl)-2-{1H-pyrrolo[2,3-b]-pyridin-4-yl}pyrimidin-4-yl]-morpholine] | 17 | 166 |
| C[C@@H]1COCCN1c1cc(C2CCN(C(=O)CC3CC3)CC2)nc(-c2ccnc3[nH]ccc23)n1 [Example 25, 2-Cyclopropyl-1-(4-{6-[(3R)-3-methylmorpholin-4-yl]-2-{1H-pyrrolo[2,3-b]pyridin-4-yl}pyrimidin-4-yl}piperidin-1-yl) ethan-1-one] | 16 | 139 |
| C[C@@H]1COCCN1c1cc(C2CCCS2(=O)=O)nc(-c2cc(Cl)nc3[nH]ccc23)n1 (single isomer, unassigned) [Example 5a] | 31 | 177 |
| C[C@@H]1COCCN1c1cc(C2CCN(C(=O)C3CC3)CC2)nc(-c2ccnc3[nH]ccc23)n1 [Example 21, (3R)-4-[6-(1-Cyclopropanecarbonylpiperidin-4-yl)-2-{1H-pyrrolo[2,3-b]pyridin-4-yl}pyrimidin-4-yl]-3-methylmorpholine] | 22 | 82 |
